Measured values as given in patent US6930088B2, “Conformationally constrained backbone cyclized somatostatin analogs” (Peptor Ltd., priority 1998, dated 2005).
“Also recorded” adds a separate entry of the source.

What was measured:
SSTR-3 = target: T1, SSTR-3 (Homo sapiens, UniProt P32745); experiment: Inhibition of 125I-Tyr11-SRIF binding to membrane preparations expressing SSTR-3; conditions: read-out: Percent inhibition of SRIF-14 binding
T1 construct: expressed in transfected cells
Description: The somatostatin analogs were tested for their potency in inhibition of the binding of ^125I-Tyr^11-SRIF (based on the method described by Raynor et. al., Molecular Pharmacology, 1993, 43, 838-844) to membrane preparations expressing the transmembranal somatostatin receptors (SSTR-1, 2, 3, 4 or 5). The receptor preparations used for these tests were either from the cloned human receptors selectively and stably expressed in Chinese Hamster Ovary (CHO) cells or from cell lines naturally expressing the SSTRs. […] The binding reactions were filtered, the filters were washed and the bound radioactivity was counted in gamma counter. Non specific binding was defined as the radioactivity remaining bound in the presence of 1 μM unlabeled SRIF-14.
(§1) In order to validate positive signals of the binding tests, and to eliminate non-specific signals, samples of irrelevant peptides, such as GnRH, that were synthesized and handled using the same procedures, were tested in the same assays as negative control samples. These samples had no binding activity in any of the assays. Results are shown below in Tables 5 and 6 and FIG. 1.

glucagon release = experiment: In-vivo effect on glucagon release; design: species or system Wistar male rats
Description: In-vivo determination of the release of glucogon as a result of peptide administration was measured in Wistar male rats.
Time course profiles for glucagon release under constant experimental conditions were measured.
Male Wistar rats were fasted overnight. Animals were anesthetized with Nembutal (IP, 60 mg/kg). Ten minutes after anesthesia, drugs were administrated S.C. at 0.01-100 microgram/kg dose. Stimulation of glucagon secretion was performed by I.V. administration of L-arginine, 0.5 g/kg, 5 minutes before blood collection from portal vein. Hormone concentration was measured by RIA.

[1] = Pharmacokinetics following IV & SC administration; conditions: for dose excreted: urine
[2] = system: growth hormone (GH) release; experiment: In-vivo inhibition of growth hormone release; design: species or system Wistar male rats
Description: Inhibition of growth hormone (GH) release as a result of peptide administration was measured in Wistar male rats.
Adult male Wistar rats weighing 200-250 g, were maintained on a constant light-dark cycle (light from 8:00 to 20:00 h), temperature (21±3° C.), and relative humidity (55±10%). Laboratory chow and tap water were available ad libitum. On the day of the experiment, rats were anesthetized with Nembutal (IP, 60 mg/kg). Ten minutes after anesthesia, drugs were administered S.C. at 0.01-100 microgram/kg dose. Stimulation of GH was performed by I.V. administration of 0.5 g/kg of L-Arginine through femoral vein. Sampling was carried out following 5 minutes of stimulation, at 15 or 30 minutes after peptide administration. Blood samples were collected form abdominal vena-cava into tubes containing heparin (15 units per ml of blood) and centrifuged immediately. Plasma was separated and kept frozen at −20° C. until assayed. Rat growth hormone (rGH) [^125I] levels were determined by means of a radioimmunoassay kit (Amersham). The standard in this kit has been calibrated against a reference standard preparation (NIH-RP2) obtained from the National Institute of Diabetes and Digestive and Kidney Diseases. All samples were measured in duplicate.

Opiate receptors = experiment: Guinea-Pig Ileum met-Enkephalin-evoked twitch contraction; conditions: preliminary results
SSTR-2 = target: T2, SSTR-2 (Homo sapiens, UniProt P30874); experiment: Inhibition of 125I-Tyr11-SRIF binding to membrane preparations expressing SSTR-2; conditions: read-out: Percent inhibition of SRIF-14 binding
T2 construct: expressed in transfected cells
T2 sequence (P30874 whole entry): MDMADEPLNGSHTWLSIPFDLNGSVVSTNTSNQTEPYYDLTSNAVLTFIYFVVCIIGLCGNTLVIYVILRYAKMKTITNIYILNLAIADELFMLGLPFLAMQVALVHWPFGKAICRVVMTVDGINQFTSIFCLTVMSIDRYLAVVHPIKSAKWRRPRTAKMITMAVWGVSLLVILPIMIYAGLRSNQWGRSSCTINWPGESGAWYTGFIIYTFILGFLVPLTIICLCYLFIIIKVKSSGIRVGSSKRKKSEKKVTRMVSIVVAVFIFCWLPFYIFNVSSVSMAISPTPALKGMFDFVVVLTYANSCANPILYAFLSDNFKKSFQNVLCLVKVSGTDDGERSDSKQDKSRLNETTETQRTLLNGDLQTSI
Description: The receptor preparations used for these tests were either from the cloned human receptors selectively and stably expressed in Chinese Hamster Ovary (CHO) cells or from cell lines naturally expressing the SSTRs. […] The binding reactions were filtered, the filters were washed and the bound radioactivity was counted in gamma counter. Non specific binding was defined as the radioactivity remaining bound in the presence of 1 μM unlabeled SRIF-14.
as §1

[3] = system: somatostatin receptors (SSTR-1, 2, 3, 4 or 5); experiment: Somatostatin receptor subtype selectivity of binding; design: species or system human; conditions: in words
Description: The somatostatin analogs were tested for their potency in inhibition of the binding of ^125I-Tyr^11-SRIF (based on the method described by Raynor et. al., Molecular Pharmacology, 1993, 43, 838-844) to membrane preparations expressing the transmembranal somatostatin receptors (SSTR-1, 2, 3, 4 or 5). The receptor preparations used for these tests were either from the cloned human receptors selectively and stably expressed in Chinese Hamster Ovary (CHO) cells or from cell lines naturally expressing the SSTRs. Typically, cell membranes were homogenated in Tris buffer in the presence of protease inhibitors and incubated for 30-40 minutes with ^125I-Tyr^11-SRIF with different concentrations of the tested sample. The binding reactions were filtered, the filters were washed and the bound radioactivity was counted in gamma counter. Non specific binding was defined as the radioactivity remaining bound in the presence of 1 μM unlabeled SRIF-14.
as §1

[4] = Table 4, physiological selectivity

T1 sequence (P32745 whole entry): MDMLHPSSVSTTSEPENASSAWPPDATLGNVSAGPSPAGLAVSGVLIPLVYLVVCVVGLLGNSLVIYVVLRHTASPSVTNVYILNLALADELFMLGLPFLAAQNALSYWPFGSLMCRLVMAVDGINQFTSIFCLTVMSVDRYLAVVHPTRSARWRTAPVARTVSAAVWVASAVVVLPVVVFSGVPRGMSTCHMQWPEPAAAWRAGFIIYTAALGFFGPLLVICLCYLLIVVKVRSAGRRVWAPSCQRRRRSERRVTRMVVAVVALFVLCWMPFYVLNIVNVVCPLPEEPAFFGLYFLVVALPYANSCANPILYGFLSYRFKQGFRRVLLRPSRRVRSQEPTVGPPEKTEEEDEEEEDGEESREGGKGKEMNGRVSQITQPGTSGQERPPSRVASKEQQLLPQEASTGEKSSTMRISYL

## C[C@@H](O)[C@@H]1NC(=O)[C@H](CCCCN)NC(=O)[C@@H](Cc2c[nH]c3ccccc23)NC(=O)[C@H](Cc2c[nH]c3ccccc23)NC(=O)[C@H](Cc2ccccc2)NC(=O)CCCNC(=O)CCCN(CC(N)=O)C(=O)[C@H](Cc2ccccc2)NC1=O [PTR 3173, GABA*-Phe-Trp-(D)Trp-Lys-Thr-Phe-Gly(C3)-X]
SSTR-3
  inhibition at 10 pM: 2%
  inhibition at 0.0001 µM: 1%
  inhibition at 0.001 µM: 1%
  inhibition at 0.01 µM: 4%
  inhibition at 0.1 µM: 50%
  inhibition at 1 µM: 89%
Glucagon release; 100 micrograms per kilogram, FIG. 4
  effect on glucagon levels compare to control: statistically significant difference in glucagon levels compare to control
Glucagon release; [4]
  Glucagon ID50: >100 µg/kg
Glucagon release; in words, no dose stated
  effect on glucagon (general statement): considerably lower affect on the release of glucagon than Octreotide; also recorded: much less activity on glucagon
Glucagon release; ratio of ID50 values, Table 4
  GH Glucagon: >1,000
[1]; SC, Conscious Wistar rats
  Clearance: 13.3 mL/min/kg
[1]; Wistar, rat, in vivo, iv
  Clearance: 13 mL/min/kg
  Vd: 0.653 L/kg
[1]; Wistar, rat, in vivo, iv, T½β (min) circulating half life, Conscious Wistar rats
  half-life: 0.517 h
[1]; Wistar, rat, in vivo, sc
  bioavailability: 99.6%
[1]; Wistar, rat, in vivo, sc, T½β (min) circulating half life, Conscious Wistar rats
  half-life: 2.83 h
[1]; Wistar, rat, in vivo, sc, circulatory half-life, subcutaneous administration to rats
  half-life: ~3 h
[1]; Wistar, rat, iv
  dose excreted: 10.3%
[1]; Wistar, rat, sc
  dose excreted: 15.9%
[1]; subcutaneous administration, animals
  pharmacokinetic profile: flip flop (a slow release kinetic) pharmacokinetcs
[2]; 100 micrograms per kilogram, L-arginine stimulation, Nembutal anesthesia, FIG. 3
  effect on growth hormone release: equipotent inhibitors of growth hormone release in comparison to Octreotide
[2]; [4]
  GH ID50: 0.1 µg/kg
[2]; in words, no dose stated
  effect on growth hormone (general statement): significant inhibition with prolonged duration of action on the Growth Hormone-IGF-1 axis of a similar magnitude as the drug Octreotide; also recorded: potent inhibitor of growth hormone
Opiate receptors
  effect on met-Enkephalin-evoked twitch contraction: did not affect met-Enkephalin-evoked twitch contraction
SSTR-2
  inhibition at 10 pM: 15%
  inhibition at 0.0001 µM: 30%
  inhibition at 0.001 µM: 42%
  inhibition at 0.01 µM: 80%
  inhibition at 0.1 µM: 95%
  inhibition at 1 µM: 96%
[3]
  somatostatin receptor subtype selectivity: selective for receptors 2 and 5; also recorded: improved selectivity of binding to the SST receptor subtype SST-R2 and SST-R5
[3]; listed as PTR-3173
  somatostatin receptor subtype selectivity: SST-R2+SST-R5
